According to EP0428132A1, “Pradimicin derivatives” (Bristol-Myers Squibb Company, priority 1989, dated 1991):
In brackets after ≈: the same amount, converted by molar mass.

Tests used:
Candida albicans A25578 = assay: In vitro antifungal activity, serial agar dilution method (Table 1a); type: cell-based; conditions: A25578, YM agar (pH 7.0, Difco), 30°C for 2 days (yeast) or 4 days (filamentous fungi), read-out: MICs, Candida albicans A25578
Procedure: (§1) The inoculum size was adjusted to 10⁶ cells/ml, and a volume of approximately 0.003 ml of fungal suspension was applied to the surface of the antibiotic containing agar plates with a multiinoculator. After incubation, the lowest concentration of antibiotic causing virtually complete inhibition of fungal growth was determined as the minimum inhibitory concentration (MIC).

Candida albicans A9540 [1] = assay: as above; type: cell-based; conditions: A9540, YM agar (pH 7.0, Difco), 30°C for 2 days (yeast) or 4 days (filamentous fungi), read-out: MICs, Candida albicans A9540
Procedure: as §1

[2] = test system: Candida paratropicalis A25825; assay: as above; type: cell-based; conditions: YM agar (pH 7.0, Difco); 30°C for 2 days (yeast) or 4 days (filamentous fungi); read-out: MICs, Candida paratropicalis A25825
Procedure: as §1

[3] = test system: Candida pseudotropicalis A25802; assay: as above; type: cell-based; conditions: Kluyveromyces marxianus, YM agar (pH 7.0, Difco), 30°C for 2 days (yeast) or 4 days (filamentous fungi), read-out: MICs, Candida pseudotropicalis A25802
Procedure: as §1

[4] = test system: Candida tropicalis A25809; assay: as above; type: cell-based; conditions: YM agar (pH 7.0, Difco), 30°C for 2 days (yeast) or 4 days (filamentous fungi), read-out: MICs, Candida tropicalis A25809
Procedure: as §1

[5] = test system: Candida tropicalis A25812; assay: as above; type: cell-based; conditions: A25812, YM agar (pH 7.0, Difco), 30°C for 2 days (yeast) or 4 days (filamentous fungi), read-out: MICs, Candida tropicalis A25812
Procedure: as §1

[6] = test system: Cryptococcus neoformans A15053; assay: as above; type: cell-based; conditions: A15053, YM agar (pH 7.0, Difco), 30°C for 2 days (yeast) or 4 days (filamentous fungi), read-out: MICs, Cryptococcus neoformans A15053
Procedure: as §1

[7] = test system: Microsporum canis WW10218; assay: as above; type: cell-based; conditions: WW10218, pH 7, read-out: MICs, Microsporum canis WW10218
Procedure: as §1

[8] = test system: Microsporum gypseum WW1107; assay: as above; type: cell-based; conditions: Nannizzia gypsea, YM agar (pH 7.0, Difco), 30°C for 2 days (yeast) or 4 days (filamentous fungi), read-out: MICs, Microsporum gypseum WW1107
Procedure: as §1

[9] = test system: Saccharomyces cerevisiae A25803; assay: as above; type: cell-based; conditions: YM agar (pH 7.0, Difco), 30°C for 2 days (yeast) or 4 days (filamentous fungi), read-out: MICs, Saccharomyces cerevisiae A25803
Procedure: as §1

[10] = test system: Trichophyton mentagrophytes A26771; assay: as above; type: cell-based; conditions: A26771, YM agar (pH 7.0, Difco), 30°C for 2 days (yeast) or 4 days (filamentous fungi), read-out: MICs, Trichophyton mentagrophytes A26771
Procedure: as §1

[11] = test system: Trichophyton rubrum A26761; assay: as above; type: cell-based; conditions: A26761, pH 7, read-out: MICs, Trichophyton rubrum A26761
Procedure: as §1

FA21436 = assay: In vitro antifungal activity, serial agar dilution method (Table 1); type: cell-based, Asoergukkys flavus; conditions: 40 h, pH 7, read-out: MIC, Asoergukkys flavus FA21436
Procedure: as §1, with “(MIC). Table 1. [table]” for “(MIC).”

[12] = test system: Aspergillus fumigatus IAM2034; assay: as above; type: cell-based; conditions: Aspergillus fumigatus, IAM2034; Sabouraud dextrose agar (pH 7.0); 28°C for 40 hours
Procedure: as §1, with “(MIC). Table 1. [table]” for “(MIC).”

[13] = test system: Aspergillus fumigatus IAM2530; assay: as above; type: cell-based; conditions: Aspergillus fumigatus, IAM2530; Sabouraud dextrose agar (pH 7.0); 28°C for 40 hours
Procedure: as §1, with “(MIC). Table 1. [table]” for “(MIC).”

[14] = test system: Blastomyces dermatidis D40; assay: as above; type: cell-based; conditions: Blastomyces, D40, 40 h, pH 7, read-out: MIC, Blastomyces dermatidis D40
Procedure: as §1, with “(MIC). Table 1. [table]” for “(MIC).”

Candida albicans A9540 [15] = assay: as above; type: cell-based; conditions: Candida albicans, A9540; Sabouraud dextrose agar (pH 7.0); 28°C for 40 hours
Procedure: as §1, with “(MIC). Table 1. [table]” for “(MIC).”

Candida albicans IAM4888 = assay: as above; type: cell-based; conditions: Candida albicans, IAM4888; Sabouraud dextrose agar (pH 7.0); 28°C for 40 hours
Procedure: as §1, with “(MIC). Table 1. [table]” for “(MIC).”

[16] = test system: Cryptococcus neoformans D49; assay: as above; type: cell-based; conditions: Cryptococcus neoformans, D49, 40 h, pH 7, read-out: MIC, Cryptococcus neoformans D49
Procedure: as §1, with “(MIC). Table 1. [table]” for “(MIC).”

[17] = test system: Cryptococcus neoformans IAM4514; assay: as above; type: cell-based; conditions: Cryptococcus neoformans, IAM4514; Sabouraud dextrose agar (pH 7.0); 28°C for 40 hours
Procedure: as §1, with “(MIC). Table 1. [table]” for “(MIC).”

[18] = test system: Fusarium moniliforme A2284; assay: as above; type: cell-based; conditions: Fusarium verticillioides, A2284; Sabouraud dextrose agar (pH 7.0); 28°C for 40 hours
Procedure: as §1, with “(MIC). Table 1. [table]” for “(MIC).”

Mucor spinosus IFO5317 = assay: as above; type: cell-based; conditions: Mucor spinosus, IFO5317; Sabouraud dextrose agar (pH 7.0); 28°C for 40 hours
Procedure: as §1, with “(MIC). Table 1. [table]” for “(MIC).”

[19] = test system: Petriellidium boydii IFO8078; assay: as above; type: cell-based; conditions: Scedosporium boydii, IFO8078; Sabouraud dextrose agar (pH 7.0); 28°C for 40 hours
Procedure: as §1, with “(MIC). Table 1. [table]” for “(MIC).”

[20] = test system: Sprotricosis schenckii IFO8158; assay: as above; type: cell-based; conditions: 40 h, pH 7, read-out: MIC, Sprotricosis schenckii IFO8158
Procedure: as §1, with “(MIC). Table 1. [table]” for “(MIC).”

[21] = test system: Trichophyton mentagrophytes #4329; assay: as above; type: cell-based; conditions: Trichophyton mentagrophytes; Sabouraud dextrose agar (pH 7.0); 28°C for 40 hours
Procedure: as §1, with “(MIC). Table 1. [table]” for “(MIC).”

[22] = test system: Trichophyton mentagrophytes D155; assay: as above; type: cell-based; conditions: Trichophyton mentagrophytes, D155; Sabouraud dextrose agar (pH 7.0); 28°C for 40 hours
Procedure: as §1, with “(MIC). Table 1. [table]” for “(MIC).”

[23] = Water solubility, protocol I (PBS, HPLC); type: physicochemical; conditions: Method I: PBS without CaCl₂ and MgCl₂.6H₂O
Procedure: The supernatant (2 µL) was analyzed by HPLC using the conditions specified for each compound in the Experimental Section. […] When not soluble, an additional amount of PBS (x µL) was added, sonicated, and centrifuged. When visibly soluble, the solution (2 µL) was injected to HPLC and the peak area was used for the known concentration of the sample.

Structure (SMILES) | MIC (Candida albicans A25578) | MIC (Candida albicans A9540 [1]) | MIC [2] | MIC [3] | MIC [4] | MIC [5] | MIC [6] | MIC [7] | MIC [8] | MIC [9] | MIC [10] | MIC [11] | solubility [23] | further results
COc1cc(O)c2c(c1)C(=O)c1c(cc3c(c1O)-c1c(cc(C)c(C(=O)N[C@H](C)C(=O)O)c1O)[C@H](O[C@@H]1O[C@H](C)[C@H](N(C)C(=O)NS(=O)(=O)c4ccc(C)cc4)[C@H](O)[C@H]1O)[C@H]3O)C2=O [Ex. 19, N-(p-toluenesulfonylcarbamyl) pradimicin B] | 12.5 µg/mL (≈ 13.8 µM) | 12.5 µg/mL (≈ 13.8 µM) | 25 µg/mL (≈ 27.6 µM) | 3.2 µg/mL (≈ 3.53 µM) | 6.3 µg/mL (≈ 6.95 µM) | 12.5 µg/mL (≈ 13.8 µM) | 6.3 µg/mL (≈ 6.95 µM) | 12.5 µg/mL (≈ 13.8 µM) | 50 µg/mL (≈ 55.2 µM) | 3.2 µg/mL (≈ 3.53 µM) | 50 µg/mL (≈ 55.2 µM) | 50 µg/mL (≈ 55.2 µM) | – | –
COc1cc(O)c2c(c1)C(=O)c1c(cc3c(c1O)-c1c(cc(C)c(C(=O)N[C@H](C)C(=O)O)c1O)[C@H](O[C@@H]1O[C@H](C)[C@H](N(C)C(N)=O)[C@H](O)[C@H]1O)[C@H]3O)C2=O [Ex. 17, N-carbamyl pradimicin B] | 3.2 µg/mL (≈ 4.26 µM) | 6.3 µg/mL (≈ 8.38 µM) | 6.3 µg/mL (≈ 8.38 µM) | 1.6 µg/mL (≈ 2.13 µM) | 1.6 µg/mL (≈ 2.13 µM) | 6.3 µg/mL (≈ 8.38 µM) | 6.3 µg/mL (≈ 8.38 µM) | 25 µg/mL (≈ 33.3 µM) | 25 µg/mL (≈ 33.3 µM) | 1.6 µg/mL (≈ 2.13 µM) | 25 µg/mL (≈ 33.3 µM) | 25 µg/mL (≈ 33.3 µM) | – | –
COC(=O)/C=C/CN(C)[C@@H]1[C@H](O[C@@H]2OC[C@@H](O)[C@H](O)[C@H]2O)[C@@H](O)[C@H](O[C@H]2c3cc(C)c(C(=O)N[C@H](C)C(=O)O)c(O)c3-c3c(cc4c(c3O)C(=O)c3cc(OC)cc(O)c3C4=O)[C@@H]2O)O[C@@H]1C [compound 12, N-(trans-3-methoxycarbonyl-2-propenyl) pradimicin A] | – | – | – | – | – | – | – | – | – | – | – | – | – | MIC (FA21436): 25 µg/mL (≈ 26.6 µM); MIC [12]: 12.5 µg/mL (≈ 13.3 µM); MIC [13]: 12.5 µg/mL (≈ 13.3 µM); MIC [14]: > 25 µg/mL; MIC (Candida albicans A9540 [15]): > 25 µg/mL; MIC (Candida albicans IAM4888): 25 µg/mL (≈ 26.6 µM); MIC [16]: 6.3 µg/mL (≈ 6.71 µM); MIC [17]: 6.3 µg/mL (≈ 6.71 µM); MIC [18]: > 25 µg/mL; MIC (Mucor spinosus IFO5317): > 25 µg/mL; MIC [19]: > 25 µg/mL; MIC [20]: 12.5 µg/mL (≈ 13.3 µM); MIC [21]: 25 µg/mL (≈ 26.6 µM); MIC [22]: 12.5 µg/mL (≈ 13.3 µM)
C=CCN(C)[C@@H]1[C@H](O[C@@H]2OC[C@@H](O)[C@H](O)[C@H]2O)[C@@H](O)[C@H](O[C@H]2c3cc(C)c(C(=O)N[C@H](C)C(=O)O)c(O)c3-c3c(cc4c(c3O)C(=O)c3cc(OC)cc(O)c3C4=O)[C@@H]2O)O[C@@H]1C [Ex. 22, N-(Allyl) pradimicin A] | 3.2 µg/mL (≈ 3.63 µM) | > 50 µg/mL | > 50 µg/mL | 3.2 µg/mL (≈ 3.63 µM) | – | > 50 µg/mL | 0.4 µg/mL (≈ 0.454 µM) | 1.6 µg/mL (≈ 1.82 µM) | > 50 µg/mL | – | > 50 µg/mL | – | 5000 µg/mL (≈ 5680 µM) | –
CCOC(=O)CN(C)[C@@H]1[C@H](O)[C@@H](O)[C@H](O[C@H]2c3cc(C)c(C(=O)N[C@H](C)C(=O)O)c(O)c3-c3c(cc4c(c3O)C(=O)c3cc(OC)cc(O)c3C4=O)[C@@H]2O)O[C@@H]1C [Ex. 6, N-(ethoxycarbonylmethyl) pradimicin B] | 3.2 µg/mL (≈ 4.03 µM) | 6.3 µg/mL (≈ 7.93 µM) | 6.3 µg/mL (≈ 7.93 µM) | 1.6 µg/mL (≈ 2.01 µM) | 1.6 µg/mL (≈ 2.01 µM) | 3.2 µg/mL (≈ 4.03 µM) | 1.6 µg/mL (≈ 2.01 µM) | 1.6 µg/mL (≈ 2.01 µM) | 12.5 µg/mL (≈ 15.7 µM) | 0.8 µg/mL (≈ 1.01 µM) | 6.3 µg/mL (≈ 7.93 µM) | 6.3 µg/mL (≈ 7.93 µM) | > 4000 µg/mL | –
